From PMC11320730, “5-Methoxy-2-aminoindane Reverses Diet-Induced Obesity and Improves Metabolic Parameters in Mice: A Potential New Class of Antiobesity Therapeutics” (ACS Pharmacology & Translational Science, 2024)

Experiments:
Format in all cases: in vivo
[1] = system: C57Bl/6 mice; assay: Sucrose preference test; conditions: 40 mg/kg, single dose
Protocol: Thirteen-week-old male C57BL/6 mice, maintained on a STD and housed individually, were habituated to two water bottles in their home cage for 48 h prior to the test. Baseline intake was measured by weighing the bottles. On the test day (day 1), 2 h before the onset of the dark phase, fresh water and a 1.5% sucrose solution were added to the bottles and mice were subsequently treated orally with MEAI (40 mg/kg, N = 8) or sterile water (N = 8). The mice were allowed to freely drink from either bottle for 24 h, after which the bottles were weighed to measure consumption. The study was repeated for an additional day (day 2), with the bottles switched in position (in the cage) to account for side preference. The sucrose and water intake over the 2 days were averaged, and the sucrose preference index was calculated as the average consumed sucrose solution divided by the average volume of total consumed liquid (average water plus average sucrose solution).

[2] = system: DIO C57BL/6 mice; assay: Multiparameter metabolic assessment in DIO mice
Protocol: (§1) Male C57BL/6 mice were used to establish DIO by feeding them a high-fat diet (HFD; 60% cal/L fat, 20% cal/L protein, and 20% cal/L carbohydrates; Research Diet, D12492) for 18 weeks. After this period, mice were treated with either vehicle (sterile water, N = 8) or MEAI (N = 11) daily for 28 days by gavage at a dose of 40 mg/kg/day. Age-matched control mice (N = 10) on a standard diet (STD; 14% kcal fat, 24% kcal protein, 62% kcal carbohydrates; NIH-31 rodent diet) received vehicle daily. The body weight of all mice was monitored daily, and total body fat and lean mass were determined by EchoMRI-100H (Echo Medical Systems LLC, Houston, Texas, USA). On day 29, at the end of the experimental period, mice were euthanized by a cervical dislocation under anesthesia. The kidneys, brain, liver, and fat pads were removed and weighed, and samples were either snap-frozen or fixed in buffered 4% formalin. Trunk blood was collected to determine the biochemical parameters.
The metabolic profiles and food and water intakes of the mice were assessed using the Promethion High-Definition Behavioral Phenotyping System (Sable Instruments, Inc., Las Vegas, Nevada, USA). MetaScreen software version 2.2.18.0 was used for data acquisition and instrument control. Raw data were processed using ExpeData version 1.8.4 with an analysis script detailing all aspects of the data transformation. Mice with free access to food and water, housed at temperatures of (22–23 °C), were subjected to a standard 12 h light/12 h dark cycle, which consisted of a 48 h acclimation period followed by 24 h of sampling after dosing. Respiratory gases were measured using the GA-3 gas analyzer (Sable Systems, Inc., Las Vegas, Nevada, USA) employing a pull-mode negative-pressure system. Airflow was measured and controlled by an FR-8 instrument (Sable Systems, Inc., Las Vegas, Nevada, USA) at a flow rate of 2000 mL/min. Water vapor was continuously measured, and its dilution effect on O2 and CO2 was mathematically compensated. Respiratory exchange rate (RER) was calculated as the ratio of CO2 produced (VCO2) to O2 consumed (VO2) using eq 1): [drawing 1] 1
Total energy expenditure (TEE) was calculated using VO2 and RER, according to eq 2: [drawing 2] 2
Fat oxidation (FO) and carbohydrate oxidation (CHO) were calculated using VO2 and VCO2 based on eqs 3 and 4, respectively: [drawing 3] 3 [drawing 4] 4
Energy balance and energy flux were derived from eqs 5 and 6: [drawing 5] 5 [drawing 6] 6
The thermic effect of food for each animal was calculated based on its individual food intake in a period of 24 h according to the specific percentage of carbohydrates, fats, and proteins in the consumed diet.
The basal energy expenditure was calculated based on the mean energy expenditure (EE) during the lowest EE in a 30 min period, in kilocalories per hour (kcal/h). This calculation represented the animal’s basal metabolic rate.

[3] = system: DIO C57BL/6 mice; assay: Wheel running and locomotor activity in DIO mice; conditions: 40 mg/kg/day
Protocol: as §1
The activity energy expenditure was calculated based on eq 7: [drawing 7] 7
The assessment of wheel running and locomotor activity was performed by using the Promethion High-Definition Behavioral Phenotyping System (Sable Instruments, Inc., Las Vegas, Nevada, USA). Wheel revolutions were measured with a monitor that recorded voluntary wheel running activity, and locomotor activity was quantified using disruptions of infrared XYZ beam arrays with a beam spacing of 0.25 cm. Pedestrian locomotion represented the sum of all directed ambulatory locomotion within the beam break system, using a speed cutoff of 1 cm/s. Total distance represented the sum of all distances traveled within the beam break system, not including any distance run on the wheel in meters (m); this included fine movements (such as grooming and scratching).

[4] = system: DIO C57BL/6 mice; assay: Glucose tolerance test (ipGTT) and insulin tolerance test (ipITT) in DIO mice; conditions: 40 mg/kg/day
Protocol: as §1
On day 25 of the experiment, mice were subjected to an overnight fasting and then injected with glucose (1.5 g/kg i.p.) on the following day (day 26). Blood glucose levels were determined at 0, 15, 30, 45, 60, 90, and 120 min after injection using the Contour glucometer (Bayer, Pittsburgh, Pennsylvania, USA). The mice were then fasted for 6 h the next day (day 27) before being administered insulin (0.75 U/kg, i.p.; Actrapid vials, Novo Nordisk A/S, Bagsværd, Denmark). Blood glucose levels were determined at the same intervals as those described above. To assess insulin resistance, the homeostasis model assessment insulin resistance (HOMA-IR) was calculated as fasting serum insulin ([μU/mL] × fasting plasma glucose [mmol/L]/22.5). The relative insulin sensitivity index (ISI) was calculated as 1/(glucose × insulin) × 1000, with glucose expressed as mg/dL and insulin as mU/L.

[5] = DIO mice, 40 mg/kg/day, vs HFD vehicle
[6] = vs HFD-vehicle, did not surpass STD-vehicle

With `COc1ccc2c(c1)CC(N)C2.Cl` (centres unmarked) [MEAI, 2,3-Dihydro-5-methoxy-1H-inden-2-amine hydrochloride] the “preference for sucrose solution” value ([1]; 1.5% sucrose, most evident during initial 24 h, vs vehicle) was “significantly reduced”, the water intake levels ([1]; sucrose preference test) was “without any accompanying decrease” and the basal energy expenditure ([2]; DIO mice, 40 mg/kg/day) was “significantly boosted”. The “cumulative TEE” value ([2]; DIO mice, 40 mg/kg/day) was “increases”, the water consumption ([2]; DIO mice, 40 mg/kg/day) was “did not exert any significant influence” and the “total food intake over 24 h” value ([2]; DIO mice, 40 mg/kg/day, across all groups) was “similar”. The overall energy balance ([2]; DIO mice, 40 mg/kg/day, across the groups) was “no significant changes”, the “thermodynamic (thermic) effect of food” value ([2]; DIO mice, 40 mg/kg/day, between groups) was “remained unchanged” and the RER ([2]; DIO mice, 40 mg/kg/day, in comparison to STD vehicle group) was “slightly decreased”. For the same molecule, the “differences in TEE by ANCOVA using lean mass as covariant” value ([2]; DIO mice, 40 mg/kg/day, p = 0.0097 vs HFD vehicle) was “treatment-dependent”, the average energy expenditure ([2]; DIO mice, 40 mg/kg/day, vs HFD and STD vehicle, light and dark phases) was “significant increase” and the CHO levels [2, 5] was “no direct effect of the drug itself observed”. For the same molecule, the carbon dioxide production [2, 5] was “slightly increased”, the oxygen consumption [2, 5] was “slightly increased” and the “overall rate of FO” value ([2]; DIO mice, 40 mg/kg/day, vs HFD- and STD-vehicle groups) was “increase”. For the same molecule, the energy flux ([2]; DIO mice, 40 mg/kg/day, vs vehicle groups) was “significant increase”, the “meal size (food intake per meal)” value ([2]; HFD-fed mice regardless of MEAI treatment (40 mg/kg/day), vs STD) was “significant reduction” and the voluntary wheel running [3] was “increased capability to run on the voluntary wheel”. The wheel running speed [3] was “comparable to the STD-vehicle-treated group”, the “interaction times with food and water dispensers (time budget)” value ([3]; Results section) was “extended” and the “voluntary ambulatory behaviors (pedestrian activity and grooming)” value ([3]; pronounced during nocturnal phase) was “significantly boosted”. For the same molecule, the “energy expenditure associated with activity levels” value ([3]; trend toward an increase) was “did not reach statistical significance”, the pedestrian activity [3, 6] was “increased” and the pedestrian speed [3, 6] was “increased”. The total distance traveled [3, 6] was “increased”, the HOMA-IR score [4] was “improved” and the ISI score [4] was “improved”. The “fasting blood glucose levels” value [4] was “reduced” and the “glucose metabolism (glucose and insulin tolerance tests)” value ([4]; days 26-27) was “significant improvement”.
